According to US8106190B2, “2-aminobenzamide derivatives” (Astellas Pharma Inc., priority 2005, dated 2012):
Where a name gives a salt, the structure may show the parent alone.

What was measured:
[1] = molecular target: T1, human VR1 (Homo sapiens, UniProt Q8NER1); test: Receptor binding assay ([3H]RTX) using membrane of human VR1 stably expressing HEK 293 cell; conditions: [3H]RTX binding, VR1/HEK 293 membrane sample, 37° C. 60 minutes; read-out: VR1 receptor binding inhibitory activity, IC50 value
T1 construct: A complete length cDNA coding for human VR1 was obtained; expressed in transfected cells
Procedure: 1. Receptor Binding Assay Using VR1 Stably Expressing Cell
1) Construction of Human VR1 Stably Expressing Cell
A complete length cDNA coding for human VR1 was obtained by the following method. Firstly, a first strand cDNA was synthesized by carrying out reverse transcription of human brain mRNA using a reverse transcriptase. Next, PCR by Hot Start method was carried out using this first strand cDNA as the template and using Taq DNA polymerase. In the aforementioned PCR, an oligonucleotide consisting of the 424th to 443rd nucleotide sequence of a conventionally known human VR1 cDNA sequence (Genbank AJ277028.1) was used as the sense primer, and an oligonucleotide consisting of a complementary chain sequence of the 3082nd to 3100th nucleotide sequence as the antisense primer, and thermal denaturation was firstly carried out at 98° C. (1 minute) and then a cycle consisting of 98° C. (15 seconds)/63° C. (30 seconds)/72° C. (3 minutes) was repeated 35 times.
Cloning of the thus amplified DNA fragment was carried out using pCR-XL-TOPO vector (TOPO XL PCR Cloning Kit; Invitrogen, USA). The human VR1-cDNA alone was isolated by digesting the resulting plasmid DNA with a restriction enzyme EcoRI and then integrated into pcDNA3.1 (+) plasmid (Invitrogen, USA). In this case, the above genetic engineering operations were carried out by conventionally known methods (Sambrook, J. et al., “Molecular Cloning—A Laboratory Manual”, Cold Spring Harbor Laboratory Press, NY, 2001) and in accordance with the instructions attached to respective reagents.
Next, the resulting pcDNA3.1-VR1 was transferred into HEK 293 cell. By selecting VR1/HEK 293 cells using DMEM medium (Invitrogen, USA) containing 10% FBS, 100 μg/ml streptomycin, 100 U/ml penicillin and 400 μg/ml G 418, a receptor stably expressing cell strain was prepared. The receptor stably expressing cell was sub-cultured in the medium described in the above.
2) Preparation of Membrane Sample
The VR1/HEK 293 cell described in the above was mass-produced in a dish and then, after discarding the medium, scraped out after adding ice-cooled PBS. Centrifugation was carried out at 1000 rpm and at 4° C. for 10 minutes, and the resulting residue was homogenized by adding a homogenization buffer (25 mM Tris-HCl, 220 mM sucrose, pH 7.4) and centrifuged at 2,200 rpm and at 4° C. for 10 minutes. The resulting supernatant was centrifuged at 30,000×g and at 4° C. for 20 minutes and the resulting residue was mixed with 25 mM Tris-HCl, pH 7.4, and centrifuged at 30,000×g and at 4° C. for 20 minutes, and this operation was repeated twice. The resulting residue was suspended in 25 mM Tris-HCl, pH 7.4, and the protein concentration was determined using a protein assay staining solution (Bio-Rad, USA). The thus prepared membrane sample was stored at −80° C.
3) Receptor Binding Assay
This was carried out by modifying the method of [Neurosci., 57: 747-757 (1993)]. As the assay buffer, 25 mM Tris-HCl, 0.025% BSA, pH 7.4 was used. Each test compound, [^3H]RTX 50 μl (about 50,000 dpm; Perkin Elmer Life Science, USA) and the aforementioned membrane sample (protein quantity about 25 μg) were suspended in a microplate to a total volume of 300 μl, incubated at 37° C. for 60 minutes and then incubated on ice for 10 minutes. A 200 μg/50 μl portion of an ice-cooled α1 acid glycoprotein (AGP; Sigma) was added thereto and further incubated for 5 minutes. Completion of the incubation was carried out by rapid filtration of the reaction liquid using a GF/B filter (Perkin Elmer Life Science, USA). After 7 times of washing with ice-cooled 25 mM Tris-HCl buffer (pH 7.4), radioactivity of the filter was measured by a liquid scintillation counter. Regarding the specific binding, a part substituted by 1 μM of RTX among the total binding of [^3H]RTX with the VR1 receptor stably expressing cell membrane fraction was regarded as the specific binding originated from the VR1 receptor. Evaluation of test compounds was carried out in the following manner. […]

[2] = tested on: mouse (ddY, male); test: Capsaicin test (capsaicin-induced paw-licking behavior); assay type: in vivo; conditions: oral administration 45 minutes before 1.6 μg capsaicin to planta; 5 minutes observation; vehicle group = 100%
Procedure: Inhibitory action on pain behavior of the compounds as the active ingredients of the pharmaceutical preparations of the present invention was evaluated in accordance with the method described in a reference [Neuropharmacol., 31: 1279-1285 (1992)]. That is, when 1.6 μg of capsaicin is administered to a planta of a mouse (ddY, male, 4 to 5 weeks of age), it induces paw-licking behavior. The pain behavior suppressing action was evaluated by measuring the paw-licking behavior expressing time during 5 minutes after the administration. Each test compound was orally administered 45 minutes before the administration of capsaicin. Evaluation of the test compounds was carried out by calculating each inhibition rate of the test compound administration group when the paw-licking behavior expressing time of the vehicle administration group was regarded as 100%.

[3] = molecular target: T1, human VR1; test: Inhibitory activity on capsaicin-induced electric current, whole cell patch clamp, VR1 receptor-expressed HEK 293 cells; assay type: cell-based; conditions: capsaicin 1 μM, voltage-clamped, read-out: IC50 value, inhibition of capsaicin-induced current response
Procedure: 2. Measurement of Inhibitory Activity on Capsaicin-Induced Electric Current Using VR1 Stably Expressing Cell
The VR1 receptor-expressed HEK 293 cells prepared in the aforementioned Test Example 1 were inoculated onto a poly-D-lysine-coated cover glass to a density of from 1 to 1.5×10^4 cells/cm^2. This was allowed to stand still in a CO2 incubator (37° C., 5% CO2) and used in this test after a lapse of from 3 to 15 hours.
By recording whole cell patch clamp for the VR1 receptor-expressed HEK 293 cells under a voltage-clamped condition, the current response induced by topically applying capsaicin (1 μM) to the vicinity of the cells was measured. Test compounds were dissolved in an extracellular liquid and applied to a chamber by multi-barrel. Composition (mM) of the extracellular solution was set to NaCl 145, CsCl 5, CaCl2 1, MgCl2 1, HEPES 10 and glucose 10 [pH=7.3]. Composition (mM) of the intracellular solution was set to CsCl 120, MgCl2 2, HEPES 10, BAPTA 10, Na2 GTP 0.2, Mg ATP 4 and phosphorcreatine Na2 4 [pH=7.2]. By defining the current response of capsaicin in the absence of test compound as 100% and continuously applying each test compound starting from a lower concentration, inhibition rate at each concentration was measured. The IC50 value was calculated by nonlinear recursion from respective inhibition rate.

[4] = tested on: rat (SD, male); test: Spinal nerve ligation model test (von Frey hair test); assay type: in vivo; conditions: L5/L6 spinal nerve ligated rat, oral administration 60 minutes before evaluation
Procedure: 4. Spinal Nerve Ligation Model Test
Inhibitory action on pain behavior of the compounds as the active ingredients of the pharmaceutical preparations of the present invention was evaluated in accordance with the method described in a reference [Pain, 50: 355-363 (1992)]. Under pentobarbital anesthesia, the lumbar skin and muscle of a rat (SD, male, 5 to 6 weeks of age) were incised and the lumber nerve was exposed by removing the transverse process of lumbar vertebra L 6. The L 5 and L 6 spinal nerves were ligated with a silk thread and then the wound was sutured. The treatment was applied to the left side.
The drug effect evaluation was carried out after 7 to 15 days of the operation. Pain threshold for mechanical stimulus was examined by the von Frey hair (VFH) test.
Individuals having lowered pain threshold were selected in advance by the VFH test on the day before the drug effect evaluation and divided into groups in such a manner that difference in the average threshold value between respective groups becomes small.
The test compounds were orally administered 60 minutes before the drug effect evaluation. […]

T1 sequence (Q8NER1 whole entry): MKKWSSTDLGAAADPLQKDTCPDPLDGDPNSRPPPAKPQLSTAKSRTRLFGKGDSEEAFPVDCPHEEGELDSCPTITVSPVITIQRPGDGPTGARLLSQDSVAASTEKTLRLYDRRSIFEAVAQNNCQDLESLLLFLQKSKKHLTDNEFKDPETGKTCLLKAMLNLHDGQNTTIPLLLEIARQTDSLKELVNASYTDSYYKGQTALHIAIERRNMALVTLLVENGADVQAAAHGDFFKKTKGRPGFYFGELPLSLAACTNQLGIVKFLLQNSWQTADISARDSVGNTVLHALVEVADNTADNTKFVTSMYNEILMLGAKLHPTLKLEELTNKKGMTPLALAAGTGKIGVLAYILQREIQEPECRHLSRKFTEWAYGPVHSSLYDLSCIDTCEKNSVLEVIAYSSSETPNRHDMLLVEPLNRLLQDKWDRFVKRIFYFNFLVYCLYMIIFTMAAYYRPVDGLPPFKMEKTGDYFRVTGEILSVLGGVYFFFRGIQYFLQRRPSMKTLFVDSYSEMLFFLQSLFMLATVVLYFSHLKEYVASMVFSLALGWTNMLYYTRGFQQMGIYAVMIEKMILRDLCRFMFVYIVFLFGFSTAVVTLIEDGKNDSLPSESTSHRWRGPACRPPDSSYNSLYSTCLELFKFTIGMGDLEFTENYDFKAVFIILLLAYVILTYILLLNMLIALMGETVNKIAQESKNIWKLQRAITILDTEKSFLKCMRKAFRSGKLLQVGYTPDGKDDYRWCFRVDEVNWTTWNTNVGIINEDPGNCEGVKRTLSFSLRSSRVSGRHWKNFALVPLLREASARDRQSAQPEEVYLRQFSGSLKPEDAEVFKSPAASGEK

| Structure (SMILES) | IC50 [1] [nM] | inhibition rate of paw-licking behavior expressing time [2] [%] | other results |
| --- | --- | --- | --- |
| CCCCCN1CC[C@H](Nc2cc(C(F)(F)F)ccc2C(=O)Nc2ccc3c(c2)NC(=O)C3(C)C)C1 [Example 334] | 23 | 58 | – |
| CN1C(=O)CCc2ccc(NC(=O)c3ccc(Cl)cc3NN3CCCCC3)cc21 [Example 119] | 45 | – | – |
| C[C@H]1Oc2ccc(NC(=O)c3ccc(Cl)cc3N[C@@H]3CCCC[C@@H]3N3CCCC3)cc2NC1=O [Example 106, 4-chloro-N-[(2R)-2-methyl-3-oxo-3,4-dihydro-2H-benzoxazin-6-yl]-2-{[(1R,2S)-2-pyrrolidin-1-ylcyclohexyl]amino}benzamide hydrochloride] | 52 | – | – |
| Cc1nc2cc(NC(=O)c3ccc(C(F)(F)F)cc3NCc3ccncc3)ccc2s1 [Example 321] | 25 | 67 | – |
| CC1(C)C(=O)Nc2cc(NC(=O)c3ccc(C(F)(F)F)cc3N[C@H]3CCCC[C@@H]3N3CCCC3)ccc21 [Example 248] | 31 | – | – |
| Cc1nc2cc(NC(=O)c3ccc(C(F)(F)F)cc3N[C@H]3CCCC[C@@H]3N(C)C)ccc2s1 [Example 108, 2-{[(1S,2S)-2-(dimethylamino)cyclohexyl]amino}-N-(2-methyl-1,3-benzothiazol-5-yl)-4-(trifluoromethyl)benzamide hydrochloride] | 19 | – | – |
| CN1C(=O)CCc2ccc(NC(=O)c3ccc(C(F)(F)F)cc3Nc3cccnc3)cc21 [Example 178] | 62 | – | – |
| CC1Oc2ccc(NC(=O)c3ccc(C(F)(F)F)cc3NC3CCCCC3)cc2NC1=O (stereo not drawn) [Example 73] | – | 95 | – |
| CN1C(=O)CCc2ccc(NC(=O)c3cc(Cl)cnc3NCC3CC3)cc21 [Example 400] | 60 | – | – |
| CCCCN1CCC(Nc2cc(C(F)(F)F)ccc2C(=O)Nc2ccc3c(c2)NC(=O)C3(C)C)CC1 [Example 335] | 87 | 49 | – |
| CN1C(=O)CCc2ccc(NC(=O)c3ccc(Cl)cc3N[C@H]3CCCC[C@@H]3N3CCCC3)cc21 [Example 54] | – | 34 | – |

The remaining compounds from weak to strong by IC50 [1], led by results:

| IC50 [1] [nM] | Structure (SMILES) | inhibition rate of paw-licking behavior expressing time [2] [%] | other results |
| --- | --- | --- | --- |
| 18 | O=C(Nc1ccc2cccnc2c1)c1ccc(C(F)(F)F)cc1N[C@H]1CCCC[C@@H]1N1CCCC1 [Example 386] | – | – |
| 15 | O=C(Nc1ccc2cccnc2c1)c1ccc(C(F)(F)F)cc1N[C@H]1CCCC[C@H]1N1CCCC1 [Example 367] | – | – |
| 13 | Cl.O=C1Cc2c(cc(NC(=O)c3ccc(C(F)(F)F)cc3N[C@H]3CCCC[C@@H]3N3CCCC3)cc2C(F)(F)F)N1 [Example 107, N-[2-oxo-4-(trifluoromethyl)-2,3-dihydro-1H-indol-6-yl]-2-{[(1S,2S)-2-pyrrolidin-1-ylcyclohexyl]amino}-4-(trifluoromethyl)benzamide hydrochloride] | 53 | IC50 [3]: 8.8 nM; pain threshold for mechanical stimulus of the operation side leg (VFH test) [4]: completely restored the threshold value of the operation side leg to the threshold value range of the non-operation side leg |
| 12 | CN1C(=O)CCc2ccc(NC(=O)c3ccc(Cl)cc3NC3CCCC3)cc21.Cl [Example 1, 4-chloro-2-(cyclopentylamino)-N-(1-methyl-2-oxo-1,2,3,4-tetrahydroquinolin-7-yl)benzamide hydrochloride] | 45 | – |
| 9.8 | COCCNc1cc(C(F)(F)F)ccc1C(=O)Nc1ccc2sc(C)nc2c1 [Example 307] | – | – |
| 8.9 | CN1C(=O)CCc2ccc(NC(=O)c3ccc(C(F)(F)F)cc3N[C@@H]3CCCC[C@H]3OCc3ccccc3)cc21 [Example 176] | – | – |
| 5.8 | CCC(CC)Nc1cc(Cl)ccc1C(=O)Nc1ccc2c(c1)N(C)C(=O)CC2 [Example 17] | 54 | – |
| 5.6 | CN1C(=O)CCc2ccc(NC(=O)c3ccc(C(F)(F)F)cc3NC3(CN4CCCC4)CCCCC3)cc21 [Example 173] | – | – |
| 4.2 | O=C(Nc1ccc2c(c1)N(CCO)C(=O)CC2)c1ccc(C(F)(F)F)cc1NC1CCCCC1 [Example 105, 2-(cyclohexylamino)-N-[1-(2-hydroxyethyl)-2-oxo-1,2,3,4-tetrahydroquinolin-7-yl]-4-(trifluoromethyl)benzamide] | – | – |
| 3.7 | CC(C)CN1CCC(Nc2cc(C(F)(F)F)ccc2C(=O)Nc2ccc3c(c2)NC(=O)C3(C)C)CC1 [Example 327] | – | – |
| 2.6 | CN1C(=O)CCc2ccc(NC(=O)c3ccc(C(F)(F)F)cc3N[C@H]3CCCC[C@@H]3N3CCC(C)(C)C3)cc21 [Example 170] | – | – |
